Test results reported in publication PMC10499603, “Polθ is phosphorylated by PLK1 to repair double-strand breaks in mitosis” (Nature, 2023).

How the values were obtained:
mitotic BRCA2^−/− cells [1] = test: Metaphase spreads, chromosomal abnormalities; assay type: cell-based, human; conditions: Rucaparib, 1 h in mitosis
Method: Cells were blocked in G2 with RO3306 (5 μM) for 16 h, released, then blocked in mitosis by nocodazole and subsequently treated with Rucaparib for 1 h. After shake off, mitotic cells were centrifuged and subsequently resuspended in a pre-warmed hypotonic solution (0.075 M KCl) and maintained at 37 °C for 15 min. Cells were then centrifuged, and pellets were fixed in fresh methanol and stored at −20 °C. After metaphase spreading, air-dried slides were stained with a Gurr/Giemsa/Acetone solution (Gibco, 10582013; Giemsa (KaryoMAX Giemsa stain solution, Gibco, 10092013)) for 5 min and then rinsed twice with Gurr buffer. Slides were air-dried and neo-mounted with anhydrous mounting medium (Merck, 109016). Images were acquired at 100× magnification using DeltaVision (Deconvolution) Image Restoration Microscope.

BRCA2^−/− cells = test: Clonogenic survival, BRCA2^−/−; assay type: cell-based, human; conditions: Rucaparib 1 μM, 1 h in mitosis
Method: (§1) For mitotic cells: cells were blocked in G2 using RO3306 (5 μM), released, then blocked in mitosis by nocodazole and subsequently seeded for clonogenic survival. Polθ-mAID cells were blocked 4 h in RO3306 (5 μM) with or without IAA (500 μM) and released in nocodazole with or without IAA for 1 h. In the case of PARPi treatment, cells were blocked 16 h in RO3306 (5 μM) and released in nocodazole with or without Rucaparib (1 μM) for 1 h. After shake off, mitotic cells were washed twice with warm media, counted and seeded for clonogenic survival. For interphase cells: growing cells were treated with IAA (500 μM), or Rucaparib (1 μM) for indicated time, washed twice with warm media and counted. For clonogenic assay upon siRNA transfection, 150,000 cells were plated per well of a 6-well plate and transfected the same day with indicated siRNA. The day after, cells were washed twice, counted and seeded for clonogenic survival. For each condition, two concentrations of cells (BRCA2^−/− cells: 500 and 2000 cells; wild-type cells: 50 and 150 cells) were seeded per well of a 6-well plate. Finally, 10 to 14 days after seeding, colonies were stained with blue methylene (Sigma, 1808) for 2 h at room temperature, washed in water, air-dried overnight and scored manually.

[2] = tested on: Polθ recruitment to mitotic DSBs; test: Polθ recruitment to laser microirradiated stripes in mitosis; assay type: cell-based, human; conditions: PARPi (Rucaparib), laser microirradiation
Method: Laser micro-irradiation was performed with a two-photon Ti:Saphire laser (Mai Tai DeepSee, Spectra Physics) at 800 nm with 20% power (from 2.1 W) on an inverted laser scanning confocal microscope equipped with spectral detection and a multi-photon laser (LSM880NLO/Mai Tai Laser, Zeiss, Spectra Physics), using a 40× objective NA1.3 oil DICII PL APO (420852-9870). Images were analysed using the ‘plot Z-axis profile’ function of Fiji (version 2.1.0/1.53c). X-ray irradiations were performed using the CIXD Dual Irradiator (RadeXp platform, Institut Curie).

wild-type cells = test: Clonogenic survival, wild-type; assay type: cell-based, human; conditions: Rucaparib 1 μM, 1 h in mitosis
Method: as §1

mitotic BRCA2^−/− cells [3] = test: γH2AX / DSB formation in mitotic cells; assay type: cell-based, human; conditions: Rucaparib 1 μM, 1 h in mitosis
Method: (§2) Cells grown on coverslips were fixed for 15 min in 2% paraformaldehyde, permeabilized for 10 min in 0.5% Triton X-100, blocked for 30 min in BSA 5%, 0.1% Triton X-100, immunostained for 1 h with primary antibodies, 45 min with secondary antibodies (Highly Cross-Adsorbed Secondary Antibodies Alexa Fluor, ThermoFisher Scientific) and mounted Vectashield mounting medium containing DAPI (Vector Laboratories). The same protocol was applied to mitotic cells, which were collected by shake off and centrifuged onto glass slides using a cytospin centrifuge (400g, 5 min) before fixation. […] Biotin azide-EdU click-it reaction was performed after fixation and permeabilization by incubating cells with a mix of Picolyl biotin, CuSO4, THPTA (Jena Bioscience) and sodium ascorbate in PBS for 30 min in the dark followed by an incubation with streptavidin conjugated Alex fluor 647 antibody (ThermoFisher Scientific) during 1 h at room temperature. Images were taken at 60× or 100× magnification using Upright Spinning disk Confocal Microscope (Roper/Zeiss) or at 40× magnification using DeltaVision (Deconvolution) Image Restoration Microscope. All images were taken with a Z-stack of 0.4 μM on 8 μM range around focus and projected using maximum intensity projection. Images were analysed using the Fiji software. All scale bars represent 5 μm unless stated otherwise.

Polθ phosphorylation = test: Label-free MS quantification of Polθ phospho-sites in mitotic HeLa GFP-Polθ cells; assay type: cell-based, Homo sapiens; conditions: nocodazole 16 h, volasertib during last hour, IP 500 mM NaCl, five experiments
Method: For the identification of Polθ binding partners by mass spectrometry, Polθ immunoprecipitation was performed as described above in 5 mg of nuclear extract of HEK-293T NeonGreen-POLQ knock-in cells. Lysates were incubated with mNeonGreen-Trap Magnetic Agarose beads (Chromotek) for 2 h at 4 °C and beads were washed twice with 150 mM NaCl buffer, once with 300 mM NaCl and three times in 25 mM ammonium bicarbonate. Finally, beads were resuspended in 100 µl 25 mM ammonium bicarbonate and digested by adding 0.2 μg of trypsin/LysC (Promega) for 1 h at 37 °C. Samples were then loaded into custom-made C18 StageTips packed by stacking one AttractSPE disk (SPE-Disks-Bio-C18-100.47.20 Affinisep) and 2 mg beads (186004521 SepPak C18 Cartridge Waters) into a 200 µl micropipette tip for desalting. Peptides were eluted using a ratio of 40:60 MeCN:H2O + 0.1% formic acid and vacuum concentrated to dryness. Peptides were reconstituted in injection buffer (0.3% TFA) before liquid chromatography–tandem mass spectrometry (LC–MS/MS) analysis by using an RSLCnano system (Ultimate 3000, Thermo Scientific) coupled to an Orbitrap Exploris 480 mass spectrometer (Thermo Scientific) as described previously. Mass spectrometry analysis was performed on three independent experiments. NeonGreen-Trap Magnetic Agarose beads incubated in HEK native cell extracts were used as control. For Polθ phosphorylated sites identification by mass spectrometry, Hela cells expressing GFP–Polθ were blocked 16 h in nocodazole. DMSO or Volasertib was added during the last hour of nocodazole treatment. 5 mg of nuclear extract were incubated with GFP Trap Magnetic Agarose beads (Chromotek) for 2 h at 4 °C and beads were washed once with 150 mM NaCl buffer, twice with 300 mM NaCl and twice with 500 mM NaCl buffer. Finally, beads were resuspended in 100 µl 25 mM Ammonium bicarbonate and digested by adding 0.2 μg of trypsin/LysC (Promega) for 1 h at 37 °C. Samples were then desalted and peptides were reconstituted in injection buffer before LC–MS/MS analysis as described previously in the Polθ binding partners identification. Mass spectrometry analysis was performed on five independent experiments. GFP Trap Magnetic Agarose beads incubated in HeLa native cell extracts were used as controls. […] Beads were resuspended, digested and desalted, and then peptides were reconstituted in injections buffer before LC–MS/MS analysis, as described for Polθ binding partners identification and by using an Orbitrap Eclipse mass spectrometer. Mass spectrometry analysis was performed on five independent experiments. Pull-downs of streptavidin beads incubated in nuclear extract of HeLa cells were used as control.

Polθ foci in mitosis = test: Polθ recruitment to DSBs in mitosis under PLK1 inhibition; assay type: cell-based, human; conditions: wild-type Polθ expressing cells, PLK1i (Volasertib, 200 nM)
Method: as §2, with “[…] Images were mounted in SoftWoRx and analysed using the Fiji software (1.53c). […]” for “All scale bars represent 5 μm unless stated otherwise.”

mitotic end joining = test: Mitotic end-joining repair assay (extrachromosomal substrate, qPCR); assay type: cell-based, human; conditions: PLK1i (Volasertib, 200 nM), mitotic cells, substrate 150 ng, 1.5 h
From the text: To assess mitotic end-joining repair, a DNA repair substrate was designed to mimic resected DNA ends containing four microhomologies, as previously described. The repair substrate was built by ligating a PCR product (GFP sequence) to DNA oligonucleotide duplexes on both sides. The PCR product (747 bp) was amplified from a GFP sequence (PCAG vector, Addgene) using the following oligonucleotide sequences (Fwd core GFP: […], Rev core GFP: […]), digested by the BsaI-HF v2 enzyme (NEB) to reveal 4 nucleotides (nts) complementary to the DNA oligonucleotide duplexes and finally, purified (Gel and PCR cleanup kit Macherey-Nagel). In parallel, two oligonucleotide duplexes (1 and 2) with ~70 nts overhangs were made after annealing (95 °C 10 min, 25 °C 30 min) of the following oligonucleotides. Oligonucleotides for duplex 1 (17 nt dsDNA, 69 nt ssDNA): oligo 1-A, […]; oligo 1-B, […]. Oligonucleotides for duplex 2 (15 nt dsDNA, 71 nt ssDNA): oligo 2-A, […]; oligo 2-B: […]. […]
To measure DNA repair efficiency, a qPCR was performed both on the GFP sequence (to control for the DNA repair substrate transfection) as well as on potential end-joining repair products. Mitotic end-joining repair efficiency was calculated using ΔΔCt between GFP qPCR and end-joining qPCR using SYBR Green Master Mix (ThermoFisher Scientific).

[4] = tested on: Polθ foci in G2, wild-type cells; test: Polθ foci in G2; assay type: cell-based, human; conditions: aphidicolin 0.4 to 1.6 μM
Method: as §2, with “[…] Images were mounted in SoftWoRx and analysed using the Fiji software (1.53c). […]” for “All scale bars represent 5 μm unless stated otherwise.”

Polθ nuclear bodies = Polθ nuclear bodies in G1 after siRNA; assay type: cell-based, human; conditions: siRNA knockdown, G1 cells
Method: Transfection of siRNA oligonucleotides (Eurofins) was performed using Lipofectamine RNAiMax (ThermoFisher Scientific) following the manufacturer’s instructions.
as §2, with “All images were taken with a Z-stack of 0.4 μM on 8 μM range around focus and projected using maximum intensity projection.” left out, “All scale bars represent 5 μm unless stated otherwise.” left out

## CNCc1ccc(-c2[nH]c3cc(F)cc4c3c2CCNC4=O)cc1 [Rucaparib]
Mitotic BRCA2^−/− cells [1]
  chromosomal abnormalities (breaks and radials): induced the formation of DSBs and chromosomal abnormalities
BRCA2^−/− cells
  clonogenic survival / cell killing: sufficient to kill BRCA2^−/−
[2]
  Polθ recruitment to mitotic DSBs: abolished
wild-type cells
  clonogenic survival / cell killing: sufficient to kill BRCA2^−/− but not wild-type cells
Mitotic BRCA2^−/− cells [3]
  DSB formation in mitosis: induced the formation of DSBs

## CC[C@@H]1C(=O)N(C)c2cnc(Nc3ccc(C(=O)N[C@H]4CC[C@H](N5CCN(CC6CC6)CC5)CC4)cc3OC)nc2N1C(C)C [Volasertib]
Polθ phosphorylation
  Ratio Nocodazole / Volacertib, phospho-site S1628.S1639: 5.418
Polθ phosphorylation; adj. p 0.00104923
  Ratio Nocodazole / Volacertib, phospho-site S1594: 1.901
Polθ phosphorylation; adj. p 0.0536125, * only re-extracted peptides by MBR
  Ratio Nocodazole / Volacertib, phospho-site S1094*: 1.958
Polθ phosphorylation; adj. p 0.0634598
  Ratio Nocodazole / Volacertib, phospho-site T1755: 3.242
Polθ phosphorylation; adj. p 0.115005, * only re-extracted peptides by MBR
  Ratio Nocodazole / Volacertib, phospho-site S1436*: 1.887
Polθ phosphorylation; adj. p 0.400471
  Ratio Nocodazole / Volacertib, phospho-site S1289: 3.904
Polθ foci in mitosis
  Polθ recruitment to DSBs in mitosis: neither mutant was recruited to DSBs in mitosis (Fig. 3f, Extended Data Fig. 8a and Supplementary Video 4), similar to our observations in wild-type Polθ expressing cells under PLK1 inhibition
Mitotic end joining
  efficiency of mitotic end joining: greatly impaired the efficiency of mitotic end joining

## C[C@@]1(CO)[C@H](O)CC[C@@]2(C)[C@H]1CC[C@H]1C[C@@H]3C[C@@]12CC[C@]3(O)CO [aphidicolin, Aphidicolin]
[4]
  Polθ foci in G2: Polθ foci in G2 could be induced by replication stress (aphidicolin treatment) in wild-type cells, to the level of that in BRCA2^−/− cells

## CAGGACAGUCUUUCCACGAdTdT (sense CAGGACAGUCUUUCCACGATT; chemistry not fully specified) [53BP1, siRNA targeting 53BP1]
Polθ nuclear bodies
  Polθ nuclear body formation: increased Polθ nuclear body formation
